The values that follow come from ChEMBL document CHEMBL3882730, “Organic Compounds as Smo Inhibitors” (2010).

Structures are written as SMILES. ≈ marks a conversion by molar mass, not a printed value.

The nature of this data set: Equilibrium solubility of the compound at pH 6.8. It is filed as physicochemical. The note with it: buffer.

The solubility (thermodynamic) is solubility found after equilibrating the solid with the medium. In turn, `CC(C)(O)c1cnc(N2CCN(c3nnc(Cc4ccccc4)c4c3CCC4)CC2)cn1` displayed a thermodynamic solubility of less than 5 µM.

On to `C[C@@H]1CN(c2nnc(Cc3ccccc3)c3c2CCC3)CCN1c1cnc(C(C)(C)O)cn1`, for which the solubility (thermodynamic) is 5 to 20 µM (≈ 2.22 to 8.89 µg/mL).
